Source: ChEMBL document CHEMBL1126767, “Three-dimensional quantitative structure-activity relationship of angiotesin-converting enzyme and thermolysin inhibitors. II. A comparison of CoMFA models incorporating molecular orbital fields and desolvation free energies based on active-analog and complementary-receptor-field alignment rules” (J Med Chem, 1993)

How the values were obtained:
[1] = molecular target: T1, Angiotensin-converting enzyme (Rattus norvegicus, UniProt P47820); assay: Inhibitory activity against angiotensin converting enzyme (ACE); Activity is for a diastereomeric or racemic mixture; format: functional
T1 sequence (P47820 whole entry): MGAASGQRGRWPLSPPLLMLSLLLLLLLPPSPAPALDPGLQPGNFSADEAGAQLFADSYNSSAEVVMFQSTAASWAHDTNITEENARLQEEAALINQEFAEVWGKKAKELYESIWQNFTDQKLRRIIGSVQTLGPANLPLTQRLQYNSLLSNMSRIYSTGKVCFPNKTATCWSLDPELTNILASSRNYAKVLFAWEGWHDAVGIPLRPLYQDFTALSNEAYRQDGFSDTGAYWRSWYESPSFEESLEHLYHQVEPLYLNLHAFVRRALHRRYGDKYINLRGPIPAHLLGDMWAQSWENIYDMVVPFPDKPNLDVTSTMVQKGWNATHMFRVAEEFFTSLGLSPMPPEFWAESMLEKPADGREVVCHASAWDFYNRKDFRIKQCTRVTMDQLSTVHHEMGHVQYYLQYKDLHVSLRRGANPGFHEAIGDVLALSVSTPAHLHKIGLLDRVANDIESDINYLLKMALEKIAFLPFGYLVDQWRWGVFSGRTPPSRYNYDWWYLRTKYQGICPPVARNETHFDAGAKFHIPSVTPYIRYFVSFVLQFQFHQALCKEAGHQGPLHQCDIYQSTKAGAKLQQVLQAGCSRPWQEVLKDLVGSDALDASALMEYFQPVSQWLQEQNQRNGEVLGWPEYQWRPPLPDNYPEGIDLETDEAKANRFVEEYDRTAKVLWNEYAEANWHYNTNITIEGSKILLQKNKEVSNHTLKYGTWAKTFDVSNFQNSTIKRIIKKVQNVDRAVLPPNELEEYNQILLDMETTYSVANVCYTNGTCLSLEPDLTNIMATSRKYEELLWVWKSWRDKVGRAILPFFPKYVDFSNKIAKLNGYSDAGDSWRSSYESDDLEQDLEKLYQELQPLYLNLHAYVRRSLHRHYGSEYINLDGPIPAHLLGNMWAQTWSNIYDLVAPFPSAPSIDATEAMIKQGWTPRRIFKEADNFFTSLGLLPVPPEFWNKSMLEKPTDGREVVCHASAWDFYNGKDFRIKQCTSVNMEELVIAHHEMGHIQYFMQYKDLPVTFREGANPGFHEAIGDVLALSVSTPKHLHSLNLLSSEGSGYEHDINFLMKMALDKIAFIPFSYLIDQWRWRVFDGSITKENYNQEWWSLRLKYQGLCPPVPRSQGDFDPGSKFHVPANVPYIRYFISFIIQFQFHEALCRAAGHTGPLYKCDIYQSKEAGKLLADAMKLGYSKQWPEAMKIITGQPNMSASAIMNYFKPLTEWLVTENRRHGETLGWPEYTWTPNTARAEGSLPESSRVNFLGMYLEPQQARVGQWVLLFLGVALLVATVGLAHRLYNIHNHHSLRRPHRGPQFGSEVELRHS

[2] = molecular target: Angiotensin-converting enzyme (Homo sapiens, UniProt P12821); assay: Inhibitory activity against angiotensin converting enzyme (ACE); format: functional

IC50 [1] | IC50 [2] | SMILES
0.00776 µM | – | C[C@H](NC(C(=O)O)C(Cc1ccccc1)NC(=O)c1ccccc1)C(=O)N1CCC[C@H]1C(=O)O (some centres not stated)
– | 2.51 µM | NCCCCC(NC(=O)OCc1ccccc1)C(=O)N[C@H](CCC(=O)N1c2ccccc2C[C@H]1C(=O)O)C(=O)O (some centres not stated)
– | 550 µM | O=C(O)CCC(=O)N[C@@H](Cc1ccccc1)C(=O)O
– | 2.57 µM | Cc1ccc(N(CC(=O)O)C(=O)C(C)N)cc1 (configuration not stated)
– | 1100 µM | CC(C)[C@H](NC(=O)CCC(=O)O)C(=O)O
– | 0.0501 µM | C[C@@H](NC(=O)C(S)Cc1ccccc1)C(=O)N1CCC[C@H]1C(=O)O (some centres not stated)
– | 4.57 µM | O=C(CCS)N[C@@H](Cc1c[nH]c2ccccc12)C(=O)O (stereo in doubt; form 2)
– | 0.049 µM | O=C(O)[C@@H]1CCCN1C(=O)C1CCC1S (some centres not stated)
– | 0.646 µM | O=C(O)[C@@H]1C=CCN1C(=O)CCS
– | 2.82 µM | O=C(O)CNC(=O)CCS
– | 0.0708 µM | O=C(O)[C@@H]1CCCN2C(=O)C[C@@H](CS)C(=O)N12
– | 0.012 µM | NCCCCC(N)C(=O)N[C@H](CCC(=O)N1[C@H](C(=O)O)C[C@@H]2CCCC[C@@H]21)C(=O)O (some centres not stated)
